According to patent US20260234185A1, “ANTI-AGING COMPOSITION COMPRISING PEPTIDE COMPLEX AS ACTIVE INGREDIENT” (priority 2023, published 2026):
Where no end group is shown, it is not given here.

How the values were obtained:
[1] = test system: sirtuin 1 (SIRT1); experiment: Western blot of SIRT1 protein expression in adipocytes; format: cell-based; settings: differentiated 3T3-L1 adipocytes; 0.2, 2, 20 μg/mL; 1 hour; Western blot (FIGS. 1a, 1b)
Description: An experiment was performed to determine whether the peptide complex prepared in Preparation Example 1 using adipocytes increases the phosphorylation of AMP-activated protein kinase (AMPK), which is a longevity-related protein, and increases the expression levels of sirtuin 1 (SIRT1) and fibroblast growth factor 21 (FGF21) proteins in adipocytes.
When 3T3-L1 preadipocytes reached 80% confluence, they were seeded at 5×10^3 cells/well in a 96-well plate and used for the experiment. Two days after reaching confluence, the medium was replaced with a differentiation-inducing medium to induce the differentiation into adipocytes, and two days after the induction, the cells were cultured for 2 days in a medium containing 10% FBS and 10 μg/mL insulin, and then the medium was replaced with 10% FBS every 2 days until their differentiation into adipocytes. Once the differentiation was complete, the medium was replaced with a serum-free medium and cultured for 4 hours to induce starvation. The peptide complexes were treated at concentrations of 0.2 μg/mL, 2 μg/mL, and 20 μg/mL, incubated for 1 hour, dissolved by adding dissolution buffer thereto, and the proteins obtained by centrifugation at 4° C. and 12,000 rpm for 30 minutes were quantified using a BCA kit. […]

[2] = test system: inflammatory cytokine TNFα; experiment: Western blot of TNFα expression in adipocytes with palmitate-induced inflammation; format: cell-based; settings: 3T3-L1 adipocytes, inflammation induced by 25 μM palmitate; 0.2, 2, 20 μg/mL; 24 hours; Western blot vs PA control (FIGS. 5a, 5b)
Description: An experiment was performed to determine whether the peptide complex prepared in Preparation Example 1 induces a decrease in the phosphorylation of IκBα and a decrease in the expression level of the inflammatory cytokine TNFα in adipocytes under an inflammatory state induced by palmitate treatment.
When 3T3-L1 preadipocytes reached 80% confluence, they were seeded at 5×10^3 cells/well in a 96-well plate and used for the experiment. Two days after reaching confluence, the medium was replaced with a differentiation-inducing medium to induce the differentiation into adipocytes. Two days after the induction, the cells were cultured for 2 days in a medium containing 10% FBS and 10 μg/mL insulin, and then the medium was replaced with 10% FBS every days 2 until their differentiation into adipocytes. Once the differentiation was complete, the medium was replaced with a serum-free medium and cultured for 4 hours to induce starvation. After treating with 25 μM palmitate for 30 minutes, the peptide complexes were treated at concentrations of 0.2 μg/mL, 2 μg/mL, and 20 μg/mL and incubated for 24 hours. The control group (PA) was treated only with palmitate but not with the peptide complex. After dissolving by adding dissolution buffer thereto, the proteins obtained by centrifugation at 4° C. and 12,000 rpm for 30 minutes were quantified using a BCA kit. […]

[3] = test system: SIRT1; experiment: Western blot of SIRT1 protein expression in myocytes; format: cell-based, mouse; settings: differentiated C2C12 myocytes; 0.2, 2, 20 μg/mL; 24 hours; Western blot (FIGS. 6a, 6b)
Description: An experiment was performed to determine whether the peptide complex increases the phosphorylation of AMPK and the expression of SIRT1 and FGF21 proteins in myocytes.
C2C12 cells, mouse-derived myoblasts, were cultured in DMEM medium containing 1% P/S and 2% BCS. When the cell confluency reached 70-80%, the cells were seeded in a 6-well culture plate. When the cell confluency in the 6-well culture plate reached 100%, the medium was replaced with differentiation medium (1% P/S, 2% horse serum), and thereafter, the differentiation medium (1% P/S, 2% horse serum) was replaced once every two days. Five days after the first replacement, the peptide complex was treated at concentrations of 0.2 μg/mL, 2 μg/mL, and 20 μg/mL and cultured for 24 hours. The group untreated with the peptide complex was used as the control. After dissolving by adding dissolution buffer thereto, the proteins obtained were centrifuged at 4° C. and 12,000 rpm for 30 minutes, and quantified using a BCA kit. The proteins were subjected to sodium dodecyl sulfate-polyacrylamide gel electrophoresis (SDS-PAGE) and then electrotransferred onto a membrane. The membrane with the proteins attached was blocked by treating it with 5% skim milk, and then the primary antibody was reacted overnight at 4° C. […]

## peptide complex: prepared by mixing equal amounts of the peptide of SEQ ID NO: 1 (LKTRN) and the peptide of SEQ ID NO: 2 (KGSATGWMA) (also: mixture of two peptides)
[1]
  expression level of SIRT1 protein: increased
[2]
  expression level of TNFα: reduced
[3]
  expression level of SIRT1 protein: increased
